Measurements published in publication PMC12689286, “Enhanced therapeutics of cabazitaxel via polycarboxylate conjugation: improved solubility, safety, and antitumor efficacy” (Frontiers in Immunology, 2025).

Key:
HCT 116 = assay: MTS cytotoxicity, HCT 116; format: cell-based; conditions: Homo sapiens; HCT 116, MTS
Procedure: (§1) Human cancer cell lines were cultured in basic medium (10% fetal bovine serum (FBS)+1% double antibody solution) (Biological Industries) at 37°C in a 5% CO2 incubator. Effects of CTXs on cell proliferation and viability were measured by an MTS (Promega Corporation) assay. Absorbance values at 490 nm were measured using a microplate reader (Thermo Scientific, Varioskan Flash) ([22]).

3T3 = assay: MTS cytotoxicity, 3T3 (non-tumor); format: cell-based; conditions: Mus musculus, NIH3T3, 3T3 non-tumor cell line
[1] = tested on: DU145 prostate cancer model; assay: DU145 prostate cancer xenograft, tumor volume; format: in vivo, BALB/c nude mice; conditions: 3 μmol/kg tail vein, three times at 3-day intervals, control 500 ± 45 mm³
Procedure: (§2) All animal experiments were conducted in accordance with protocols approved by the Institutional Animal Care and Use Committee of Peking Union Medical College. Male BALB/c nude mice (6–8 weeks old) and female KM mice (6–8 weeks old) were purchased from Charles River Laboratories (Beijing, China) and maintained under specific pathogen-free conditions.
(§3) DU145 Prostate cancer model: DU145 cells (3×10^6 cells/mouse) were subcutaneously inoculated into the right flank of BALB/c nude mic. When tumors reached approximately 100 mm³, mice were randomly divided into four treatment groups (n=6/group): (a) Vehicle control; (b) CTX (3 μmol/kg); (c) CTX-TTHA (3 μmol/kg); (d) CTX-DTPA (3 μmol/kg). Treatments were administered via tail vein injection three times at 3-day intervals. Major organs were collected for histopathological examination after the final administration.

[2] = tested on: H22 hepatocellular carcinoma tumors; assay: H22 hepatoma model, tumor growth inhibition; format: in vivo, KM mice; conditions: every other day
Procedure: H22 hepatoma model: Female KM mice were subcutaneously implanted with H22 cells (2×10^6 cells/mouse) and assigned to six groups: (a) Vehicle control; (b) CTX (9.6 μmol/kg in 5% glucose with 2.5% ethanol/2.5% Tween 80); (c) CTX-TTHA (9.6 μmol/kg in saline); (d) CTX-DTPA (9.6 μmol/kg in saline); (e) CTX-TTHA (19.1 μmol/kg in saline); (f) CTX-DTPA (19.1 μmol/kg in saline).
Treatments were administered every other day for four doses (three doses for CTX group due to weight loss >15%). Peripheral blood samples were collected for complete blood count analysis using an automated hematology analyzer.

Fadu = assay: MTS cytotoxicity, Fadu; format: cell-based; conditions: Homo sapiens
Procedure: as §1

[3] = tested on: rat red blood cells (RBCs); assay: Hemolysis test; format: cell-based, SD rats; conditions: vs unmodified CTX
Procedure: The hemolytic potential of CTX formulations was evaluated using rat red blood cells (RBCs). Briefly, whole blood was collected from the abdominal aorta of anesthetized SD rats into ACD anticoagulant (blood:ACD = 1:4, v/v). The blood was diluted with normal saline (4:5, v/v) and centrifuged at 450 g for 10 min. The RBC pellet was washed three times with normal saline until the supernatant was clear. The washed RBCs were then resuspended in normal saline to prepare a 2% (v/v) suspension.
For the assay, 500 μL of the 2% RBC suspension was mixed with an equal volume of serially diluted drugs or controls in 1.5 mL tubes. The controls included: Negative control (0% hemolysis): normal saline. Positive control (100% hemolysis): distilled water. Solvent control: the vehicle for unmodified CTX (2.5% Tween 80 + 2.5% anhydrous ethanol + 95% normal saline). The mixtures were incubated at 37 °C for 1.5 h and then centrifuged at 450 g for 5 min. Subsequently, 150 μL of the supernatant from each tube was transferred to a 96-well plate, and the absorbance at 545 nm (OD545) was measured using a microplate reader. The percentage of hemolysis was calculated using the following formula: Hemolysis (%) = [(ODsample - ODnegative control)/(ODpositive control - ODnegative control)] × 100.

DU145 cells = assay: Cell cycle arrest (PI, flow cytometry); format: cell-based, human; conditions: 24 h
Procedure: Cells were incubated with drugs for 24 h. Fixed cells were incubated with RNase A and stained with propidium iodide (PI). DNA content was determined in a flow cytometer (BD FACS CaliburTM Flow Cytometer, USA) ([23]).

Tissue distribution = conditions: for concentration at 15 min / concentration at 2 h / concentration at 4 h / concentration at 12 h: both, SD, rat, iv, 6 μmol/kg
Procedure: (§4) Male and female SD rats (200–220 g) received intravenous injections of CTX or CTX-DTPA (6 μmol/kg). CTX was dissolved in 2.5% Tween 80/2.5% EtOH/saline, while CTX-DTPA used saline alone. Blood samples were collected at 5 min to 24 h post-dose. Tissues (heart, liver, spleen, lung, kidney, thymus) and excreta were collected at 15 min, 2 h, 4 h, and 12 h. Plasma and tissue samples were processed by liquid-liquid extraction with n-butanol and analyzed via LC-MS/MS (Agilent Poroshell 120 EC-C18 column; 0.05% formic acid/acetonitrile gradient). Pharmacokinetic parameters were calculated using DAS 2.0 via non-compartmental analysis.

[4] = Plasma pharmacokinetics (non-compartmental); conditions: for AUC(0-t) / Cmax / Vd / clearance: both, SD, rat, iv, 6 umol/kg
Procedure: as §4

LN229 = assay: MTS cytotoxicity, LN229; format: cell-based; conditions: Homo sapiens, LN-229
Procedure: as §1

[5] = DU145 xenograft model, body weight; format: in vivo, BALB/c nude mice; conditions: 3 μmol/kg, by day 7
Procedure: as §2, §3

[6] = SD rats, 6 μmol/kg iv, plasma, dosed compound itself

COC1C(=O)C2(C)C(OC)CC3OCC3(OC(C)=O)C2C(OC(=O)c2ccccc2)C2(O)CC(OC(=O)C(OC(=O)CN(CCN(CCN(CC(=O)O)CC(=O)O)CC(=O)O)CC(=O)O)C(NC(=O)OC(C)(C)C)c3ccccc3)C(C)=C1C2(C)C (centres unmarked) [CTX-DTPA]
IC50 (HCT 116): 3.7 ± 1 nM
IC50 (3T3): 8.3 ± 2.7 nM
final tumor volume [1]: 244 ± 32 mm³
tumor growth inhibition ([2]; H22, high dose 19.1 μmol/kg in saline, four doses): 80.5%
IC50 (Fadu): 1.9 ± 0.6 nM
improvement in hemocompatibility over unmodified CTX [3]: 64 fold
cells arrested in G2/M (DU145 cells; DU145, 1 nM): 16.4 ± 1.0%
cells arrested in G2/M (DU145 cells; DU145, 25 nM): 58.9 ± 16.1%
concentration at 15 min (Tissue distribution; in vivo, tissue concentration, spleen, 15 min, SD rats 6 μmol/kg iv, dosed compound): 0.39 ± 0.04 ng/g
concentration at 15 min (Tissue distribution; in vivo, tissue concentration, thymus, 15 min, SD rats 6 μmol/kg iv, dosed compound): 0.62 ± 0.05 ng/g
tissue concentration (Tissue distribution; heart, 15 min, SD rats 6 μmol/kg iv, dosed compound): * 0.27 ± 0.04 μg/kg
tissue concentration (Tissue distribution; heart, 2 h, SD rats 6 μmol/kg iv, dosed compound): *** 0.07 ± 0.03 μg/kg
tissue concentration (Tissue distribution; heart, 4 h, SD rats 6 μmol/kg iv, dosed compound): *** 0.04 ± 0.00 μg/kg
tissue concentration (Tissue distribution; heart, 12 h, SD rats 6 μmol/kg iv, dosed compound): ** 0.06 ± 0.03 μg/kg
tissue concentration (Tissue distribution; kidney, 15 min, SD rats 6 μmol/kg iv, dosed compound): **** 41.08 ± 9.73 μg/kg
tissue concentration (Tissue distribution; kidney, 2 h, SD rats 6 μmol/kg iv, dosed compound): ** 4.96 ± 1.67 μg/kg
tissue concentration (Tissue distribution; kidney, 4 h, SD rats 6 μmol/kg iv, dosed compound): *** 1.55 ± 0.31 μg/kg
tissue concentration (Tissue distribution; kidney, 12 h, SD rats 6 μmol/kg iv, dosed compound): **** 1.36 ± 0.84 μg/kg
tissue concentration (Tissue distribution; liver, 15 min, SD rats 6 μmol/kg iv, dosed compound): *** 37.74 ± 16.89 μg/kg
tissue concentration (Tissue distribution; liver, 2 h, SD rats 6 μmol/kg iv, dosed compound): ** 7.21 ± 1.30 μg/kg
tissue concentration (Tissue distribution; liver, 4 h, SD rats 6 μmol/kg iv, dosed compound): * 6.74 ± 5.04 μg/kg
tissue concentration (Tissue distribution; liver, 12 h, SD rats 6 μmol/kg iv, dosed compound): * 0.65 ± 0.42 μg/kg
tissue concentration (Tissue distribution; lung, 15 min, SD rats 6 μmol/kg iv, dosed compound): *** 2.36 ± 1.29 μg/kg
tissue concentration (Tissue distribution; lung, 2 h, SD rats 6 μmol/kg iv, dosed compound): **** 0.48 ± 0.50 μg/kg
tissue concentration (Tissue distribution; lung, 4 h, SD rats 6 μmol/kg iv, dosed compound): **** 0.13 ± 0.01 μg/kg
tissue concentration (Tissue distribution; lung, 12 h, SD rats 6 μmol/kg iv, dosed compound): * 1.10 ± 0.45 μg/kg
tissue concentration (Tissue distribution; spleen, 15 min, SD rats 6 μmol/kg iv, dosed compound): *** 0.39 ± 0.04 μg/kg
tissue concentration (Tissue distribution; spleen, 2 h, SD rats 6 μmol/kg iv, dosed compound): **** 0.09 ± 0.03 μg/kg
tissue concentration (Tissue distribution; spleen, 4 h, SD rats 6 μmol/kg iv, dosed compound): ** 0.05 ± 0.02 μg/kg
tissue concentration (Tissue distribution; spleen, 12 h, SD rats 6 μmol/kg iv, dosed compound): ** 0.05 ± 0.03 μg/kg
tissue concentration (Tissue distribution; thymus, 15 min, SD rats 6 μmol/kg iv, dosed compound): ** 0.62 ± 0.05 μg/kg
tissue concentration (Tissue distribution; thymus, 2 h, SD rats 6 μmol/kg iv, dosed compound): * 0.10 ± 0.07 μg/kg
tissue concentration (Tissue distribution; thymus, 4 h, SD rats 6 μmol/kg iv, dosed compound): * 0.05 ± 0.01 μg/kg
tissue concentration (Tissue distribution; thymus, 12 h, SD rats 6 μmol/kg iv, dosed compound): **** 0.06 ± 0.04 μg/kg
elimination half-life relative to CTX ([4]; SD rats, 6 μmol/kg iv, longer than CTX): 5.1 fold
MRT0-t [4, 6]: 1.04 ± 0.57 H
AUC(0-t) ([4]; in vivo): 1.33 ± 0.777 µg·h/mL
Cmax ([4]; in vivo): 4.36 ± 2.88 µg/mL
Vd ([4]; in vivo): 69.9 L/kg
clearance ([4]; in vivo): 7.53 L/h/kg
IC50 (LN229): 5.8 ± 2.2 nM

CO[C@H]1C(=O)[C@]2(C)[C@@H](OC)C[C@H]3OC[C@@]3(OC(C)=O)[C@H]2[C@H](OC(=O)c2ccccc2)[C@]2(O)C[C@H](OC(=O)[C@H](O)[C@@H](NC(=O)OC(C)(C)C)c3ccccc3)C(C)=C1C2(C)C [CTX, Cabazitaxel]
IC50 (HCT 116): 2.2 ± 1.1 nM
IC50 (3T3): 8.7 ± 3.2 nM
final tumor volume [1]: 254 ± 35 mm³
tumor growth inhibition ([2]; H22, 9.6 μmol/kg, three doses): 30.8%
IC50 (Fadu): 1.6 ± 0.4 nM
cells arrested in G2/M (DU145 cells; DU145, 1 nM): 16.5 ± 0.7%
cells arrested in G2/M (DU145 cells; DU145, 25 nM): 65.5 ± 19.9%
concentration at 15 min (Tissue distribution; heart): 43.2 ± 12.9 ng/g
concentration at 2 h (Tissue distribution; heart): 24.6 ± 2.33 ng/g
concentration at 4 h (Tissue distribution; heart): 16 ± 1.91 ng/g
concentration at 12 h (Tissue distribution; heart): 12.6 ± 2.69 ng/g
concentration at 15 min (Tissue distribution; kidney): 550 ± 12 ng/g
concentration at 2 h (Tissue distribution; kidney): 313 ± 47.5 ng/g
concentration at 4 h (Tissue distribution; kidney): 308 ± 41.5 ng/g
concentration at 12 h (Tissue distribution; kidney): 218 ± 15.9 ng/g
concentration at 15 min (Tissue distribution; liver): 149 ± 7.27 ng/g
concentration at 2 h (Tissue distribution; liver): 78.7 ± 10.6 ng/g
concentration at 4 h (Tissue distribution; liver): 48.7 ± 11.5 ng/g
concentration at 12 h (Tissue distribution; liver): 29.3 ± 11.5 ng/g
concentration at 15 min (Tissue distribution; lung): 133 ± 15 ng/g
concentration at 2 h (Tissue distribution; lung): 117 ± 4.61 ng/g
concentration at 4 h (Tissue distribution; lung): 106.8 ± 0.42 ng/g
concentration at 12 h (Tissue distribution; lung): 79 ± 30.9 ng/g
concentration at 15 min (Tissue distribution; spleen): 250 ± 38.3 ng/g
concentration at 2 h (Tissue distribution; spleen): 160 ± 2.24 ng/g
concentration at 4 h (Tissue distribution; spleen): 113 ± 21 ng/g
concentration at 12 h (Tissue distribution; spleen): 54 ± 8.47 ng/g
concentration at 15 min (Tissue distribution; thymus): 87.8 ± 23.5 ng/g
concentration at 2 h (Tissue distribution; thymus): 129 ± 50 ng/g
concentration at 4 h (Tissue distribution; thymus): 110 ± 41.8 ng/g
concentration at 12 h (Tissue distribution; thymus): 67.2 ± 4.15 ng/g
MRT0-t [4, 6]: 0.67 ± 0.09 H
t1/2 [4, 6]: 1.27 ± 0.09 H
AUC(0-t) ([4]; plasma): 1.68 ± 0.194 µg·h/mL
Cmax ([4]; plasma): 2.93 ± 0.99 µg/mL
Vd ([4]; plasma): 5.53 ± 0.81 L/kg
clearance ([4]; plasma): 3.01 L/h/kg
IC50 (LN229): 8.5 ± 2.3 nM
body weight loss [5]: > 15%
